What was measured:
[1] = Inhibition of human sPLA2 expressed in Escherichia coli assessed as release of [14C]oleate
[2] = tested on: UT7; assay: Induction of cell proliferation in human UT7 cells at 10 uM after 42 hrs by thymidine incorporation assay; assay type: functional
[3] = target: Sodium-dependent dopamine transporter (Homo sapiens, UniProt Q01959); assay: Inhibition of recombinant human DA transporter assessed as reduction in [3H]-DA reuptake
[4] = target: Sodium-dependent noradrenaline transporter (Homo sapiens, UniProt P23975); assay: Inhibition of recombinant human norepinephrine transporter assessed as reduction in [3H]-NA reuptake
[5] = target: Sodium-dependent serotonin transporter (Homo sapiens, UniProt P31645); assay: Inhibition of recombinant human 5-HT transporter expressed in HEK293 cells assessed as reduction in [3H]-5-HT reuptake; assay type: cell-based
[6] = target: Sodium-dependent dopamine transporter (Rattus norvegicus, UniProt P23977); assay: Inhibition of DAT in Wistar rat synaptosomes assessed as [3H]-DA reuptake by liquid scintillation counting; assay type: subcellular
[7] = Inhibition of NAT in Wistar rat synaptosomes assessed as [3H]-NA reuptake by liquid scintillation counting; assay type: subcellular
[8] = target: Sodium-dependent serotonin transporter (Rattus norvegicus, UniProt P31652); assay: Inhibition of 5-HT in Wistar rat synaptosomes assessed as [3H]-5-HT reuptake by liquid scintillation counting; assay type: subcellular
[9] = target: Voltage-gated inwardly rectifying potassium channel KCNH2 (Homo sapiens, UniProt Q12809); assay: Inhibition of human ERG channel tail current
[10] = Inhibition of recombinant human sPLA2 after 30 mins microtiter plate assay

Sodium-dependent dopamine transporter (Homo sapiens, UniProt Q01959), sequence (Q01959 whole entry): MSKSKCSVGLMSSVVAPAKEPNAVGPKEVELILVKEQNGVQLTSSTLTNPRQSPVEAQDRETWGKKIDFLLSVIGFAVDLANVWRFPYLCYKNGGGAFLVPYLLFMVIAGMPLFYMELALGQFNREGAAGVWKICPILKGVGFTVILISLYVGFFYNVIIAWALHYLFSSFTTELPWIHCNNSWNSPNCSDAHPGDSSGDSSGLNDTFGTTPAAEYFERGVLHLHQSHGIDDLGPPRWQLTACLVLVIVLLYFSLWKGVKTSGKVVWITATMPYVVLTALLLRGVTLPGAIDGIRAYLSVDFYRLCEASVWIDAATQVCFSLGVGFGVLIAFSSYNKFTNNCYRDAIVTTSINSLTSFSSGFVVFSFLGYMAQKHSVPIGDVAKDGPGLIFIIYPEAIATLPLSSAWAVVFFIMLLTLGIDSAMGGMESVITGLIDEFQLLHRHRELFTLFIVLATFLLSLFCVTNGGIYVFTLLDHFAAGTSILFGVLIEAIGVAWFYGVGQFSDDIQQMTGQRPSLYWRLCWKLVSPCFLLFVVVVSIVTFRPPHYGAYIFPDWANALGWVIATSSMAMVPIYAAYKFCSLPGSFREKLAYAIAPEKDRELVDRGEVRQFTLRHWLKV
Sodium-dependent serotonin transporter (Rattus norvegicus, UniProt P31652), sequence (P31652 whole entry): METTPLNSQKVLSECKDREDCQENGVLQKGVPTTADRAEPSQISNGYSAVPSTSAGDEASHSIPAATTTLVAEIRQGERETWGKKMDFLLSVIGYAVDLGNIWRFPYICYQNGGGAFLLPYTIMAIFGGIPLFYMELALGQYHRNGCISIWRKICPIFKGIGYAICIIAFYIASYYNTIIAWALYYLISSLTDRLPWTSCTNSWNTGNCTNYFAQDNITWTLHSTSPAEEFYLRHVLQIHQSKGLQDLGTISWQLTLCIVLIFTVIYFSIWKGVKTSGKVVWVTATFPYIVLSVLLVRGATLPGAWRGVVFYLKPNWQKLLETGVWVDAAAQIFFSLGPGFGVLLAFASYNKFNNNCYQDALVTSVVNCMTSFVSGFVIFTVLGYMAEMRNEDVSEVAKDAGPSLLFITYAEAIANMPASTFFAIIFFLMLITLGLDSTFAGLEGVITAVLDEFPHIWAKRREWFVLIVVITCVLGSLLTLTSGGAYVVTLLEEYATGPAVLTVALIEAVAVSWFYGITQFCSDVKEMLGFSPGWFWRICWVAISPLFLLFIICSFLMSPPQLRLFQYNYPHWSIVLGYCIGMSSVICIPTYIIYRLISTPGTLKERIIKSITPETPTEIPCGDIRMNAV
Sodium-dependent dopamine transporter (Rattus norvegicus, UniProt P23977), sequence (P23977 whole entry): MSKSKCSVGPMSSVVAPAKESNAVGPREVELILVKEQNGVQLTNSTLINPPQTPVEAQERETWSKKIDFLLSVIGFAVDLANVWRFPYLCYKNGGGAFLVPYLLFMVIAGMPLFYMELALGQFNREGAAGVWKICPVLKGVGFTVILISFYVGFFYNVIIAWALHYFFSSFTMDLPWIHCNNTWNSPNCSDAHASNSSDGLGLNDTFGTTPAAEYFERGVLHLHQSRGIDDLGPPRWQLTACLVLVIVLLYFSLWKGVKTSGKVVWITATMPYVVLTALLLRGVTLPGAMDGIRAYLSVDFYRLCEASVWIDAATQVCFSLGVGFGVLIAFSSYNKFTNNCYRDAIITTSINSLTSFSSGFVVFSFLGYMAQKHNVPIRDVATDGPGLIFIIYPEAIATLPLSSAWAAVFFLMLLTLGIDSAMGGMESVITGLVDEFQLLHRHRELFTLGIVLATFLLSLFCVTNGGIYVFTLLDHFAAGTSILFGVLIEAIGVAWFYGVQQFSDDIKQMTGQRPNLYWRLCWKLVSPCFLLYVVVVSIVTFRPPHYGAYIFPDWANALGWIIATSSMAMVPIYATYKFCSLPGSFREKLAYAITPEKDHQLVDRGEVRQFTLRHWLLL
Sodium-dependent serotonin transporter (Homo sapiens, UniProt P31645), sequence (P31645 whole entry): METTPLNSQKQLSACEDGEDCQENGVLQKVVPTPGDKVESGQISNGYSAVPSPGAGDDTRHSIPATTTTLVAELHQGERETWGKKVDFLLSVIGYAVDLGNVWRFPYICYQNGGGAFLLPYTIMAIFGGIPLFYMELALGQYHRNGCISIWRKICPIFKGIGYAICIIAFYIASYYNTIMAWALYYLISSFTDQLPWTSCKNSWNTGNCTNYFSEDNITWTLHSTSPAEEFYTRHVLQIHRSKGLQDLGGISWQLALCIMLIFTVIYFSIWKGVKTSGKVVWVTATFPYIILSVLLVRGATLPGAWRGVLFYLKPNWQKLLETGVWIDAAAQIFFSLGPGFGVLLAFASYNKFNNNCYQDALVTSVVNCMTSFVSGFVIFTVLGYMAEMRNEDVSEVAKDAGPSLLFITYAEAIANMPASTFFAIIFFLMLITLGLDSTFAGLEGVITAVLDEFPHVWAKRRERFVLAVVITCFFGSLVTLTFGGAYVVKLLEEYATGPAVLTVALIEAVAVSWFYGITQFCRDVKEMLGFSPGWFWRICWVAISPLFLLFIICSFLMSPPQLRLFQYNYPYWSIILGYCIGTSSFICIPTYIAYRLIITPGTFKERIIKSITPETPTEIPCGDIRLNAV
Voltage-gated inwardly rectifying potassium channel KCNH2, sequence (Q12809 whole entry): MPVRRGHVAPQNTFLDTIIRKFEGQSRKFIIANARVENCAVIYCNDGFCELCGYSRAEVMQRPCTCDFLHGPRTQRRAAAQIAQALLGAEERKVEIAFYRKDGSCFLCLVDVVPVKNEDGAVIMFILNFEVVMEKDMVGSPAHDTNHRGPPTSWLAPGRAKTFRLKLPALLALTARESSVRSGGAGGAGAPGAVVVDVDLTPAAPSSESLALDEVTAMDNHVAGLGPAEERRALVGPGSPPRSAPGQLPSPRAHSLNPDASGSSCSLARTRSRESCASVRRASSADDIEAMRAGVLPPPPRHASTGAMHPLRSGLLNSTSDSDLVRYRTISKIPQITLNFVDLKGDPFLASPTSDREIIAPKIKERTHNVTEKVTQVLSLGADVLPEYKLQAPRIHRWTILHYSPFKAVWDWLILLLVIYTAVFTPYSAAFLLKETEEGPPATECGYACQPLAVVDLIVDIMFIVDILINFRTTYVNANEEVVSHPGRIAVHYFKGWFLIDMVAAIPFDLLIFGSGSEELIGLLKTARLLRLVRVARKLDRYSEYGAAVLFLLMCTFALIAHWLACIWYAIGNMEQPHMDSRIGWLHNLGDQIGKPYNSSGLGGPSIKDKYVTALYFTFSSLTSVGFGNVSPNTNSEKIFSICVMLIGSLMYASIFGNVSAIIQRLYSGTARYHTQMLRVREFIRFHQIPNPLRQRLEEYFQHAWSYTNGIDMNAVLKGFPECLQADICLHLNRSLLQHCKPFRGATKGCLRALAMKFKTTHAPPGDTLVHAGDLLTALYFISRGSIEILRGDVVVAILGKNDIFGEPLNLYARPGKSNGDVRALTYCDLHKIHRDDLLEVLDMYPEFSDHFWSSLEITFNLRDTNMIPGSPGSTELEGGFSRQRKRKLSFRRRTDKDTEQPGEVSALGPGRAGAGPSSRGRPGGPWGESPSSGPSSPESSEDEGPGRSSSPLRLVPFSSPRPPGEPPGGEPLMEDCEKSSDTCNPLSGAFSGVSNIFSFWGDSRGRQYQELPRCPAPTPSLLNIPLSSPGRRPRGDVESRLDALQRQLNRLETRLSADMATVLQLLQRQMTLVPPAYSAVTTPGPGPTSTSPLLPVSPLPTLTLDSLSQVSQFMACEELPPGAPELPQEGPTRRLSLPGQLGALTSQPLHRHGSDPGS
Sodium-dependent noradrenaline transporter, sequence (P23975 whole entry): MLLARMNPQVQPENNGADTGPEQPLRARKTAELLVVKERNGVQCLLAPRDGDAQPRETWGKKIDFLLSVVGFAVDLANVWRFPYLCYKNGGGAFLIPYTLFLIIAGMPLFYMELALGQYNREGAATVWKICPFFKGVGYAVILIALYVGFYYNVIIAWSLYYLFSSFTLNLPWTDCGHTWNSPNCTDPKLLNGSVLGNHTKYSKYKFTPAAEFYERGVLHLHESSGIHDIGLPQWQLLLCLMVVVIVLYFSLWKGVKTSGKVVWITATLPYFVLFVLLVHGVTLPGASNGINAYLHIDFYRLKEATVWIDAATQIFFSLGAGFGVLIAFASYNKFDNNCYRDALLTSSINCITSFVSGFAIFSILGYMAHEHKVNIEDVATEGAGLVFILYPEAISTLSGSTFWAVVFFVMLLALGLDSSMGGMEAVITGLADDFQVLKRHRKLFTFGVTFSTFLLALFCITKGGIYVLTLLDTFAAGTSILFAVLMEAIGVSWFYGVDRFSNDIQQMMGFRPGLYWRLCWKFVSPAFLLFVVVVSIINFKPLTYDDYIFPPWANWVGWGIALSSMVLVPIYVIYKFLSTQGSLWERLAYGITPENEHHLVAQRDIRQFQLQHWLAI

SMILES | IC50 [6] [nM] | IC50 [7] [nM] | IC50 [8] [nM] | also measured
O=C(O)CC[C@@H](CSc1ccc(Cc2ccccc2)cc1)NC(=O)CCCCCCc1ccccc1 | – | – | – | IC50 [1]: 21 nM
COC(=O)[C@H](CCCCNC(=O)CN(CC(=O)CNc1ccc(OC)cc1)C(=O)C1CCCC(C(=O)N(CC(=O)NCCCC[C@H](NC(=O)OCc2ccccc2)C(=O)OC)CC(=O)NCc2ccc(OC)cc2)C1)NC(=O)OCc1ccccc1 (some centres not stated) | – | – | – | Activity [2]: 33%
CC(C)C(C)[C@]1(c2ccc3ccccc3c2)CC[C@](C)(O)CC1 (some centres not stated) | – | – | – | IC50 [3]: 21 nM; IC50 [4]: 33 nM; IC50 [5]: 18 nM
CN1C2CCC1CC(Oc1ccc3cc(-c4ccoc4)c(=O)oc3c1)C2 (configuration not stated) | 70 | 3.8 | 2.9 | –
Cc1ccc(C2CC3CCC(C2)N3C)cc1Br (configuration not stated) | 13 | 15 | 1.4 | –
CN1C2CCC1CC(c1ccc3ccccc3c1)C2 (configuration not stated) | 34 | 18 | 0.23 | –
COc1cc2ccc(OC3CC4CCC(C3)N4C)cc2oc1=O (configuration not stated) | 9.9 | 0.48 | 10 | –
CN(C)CC1(c2ccc(Cl)c(Cl)c2)CCCC(O)C1 (configuration not stated) | – | – | – | IC50 [3]: 13 nM
CNC[C@]1(c2ccc3ccccc3c2)CC[C@@](C)(O)CC1 | – | – | – | IC50 [3]: 40 nM; IC50 [5]: 11 nM
CC1=NN(c2ccc(C)c(C)c2)C(=O)/C1=N\Nc1cccc(-c2cccc(C(=O)O)c2)c1O [ELTROMBOPAG] | – | – | – | IC50 [9]: 690 nM
CCc1c(C(=O)C(N)=O)c2c(OCC(=O)O)cccc2n1Cc1ccccc1 [VARESPLADIB] | – | – | – | IC50 [10]: 9 nM
